From patent US11739101B2, “Bifunctional degraders of hematopoietic progenitor kinase and therapeutic uses thereof” (Nurix Therapeutics, Inc., priority 2020, dated 2023)

biological target: T1, HPK1 (Homo sapiens, UniProt Q92918); assay: HPK1 Cellular HiBiT Degradation Assay; type: cell-based; conditions: HiBiT-tagged HPK1 Jurkat cells, 24 hours, 10 uM to 0.1 nM; Dmax = 100 minus lowest % HPK1 remaining vs DMSO vehicle
T1 construct: A HiBiT tag was introduced by CRISPR on the N terminus of HPK1 in Jurkat cells; host or cells: Jurkat (ATCC TIB-152), monoclonal CRISPR HiBiT knock-in line
T1 sequence (Q92918 whole entry): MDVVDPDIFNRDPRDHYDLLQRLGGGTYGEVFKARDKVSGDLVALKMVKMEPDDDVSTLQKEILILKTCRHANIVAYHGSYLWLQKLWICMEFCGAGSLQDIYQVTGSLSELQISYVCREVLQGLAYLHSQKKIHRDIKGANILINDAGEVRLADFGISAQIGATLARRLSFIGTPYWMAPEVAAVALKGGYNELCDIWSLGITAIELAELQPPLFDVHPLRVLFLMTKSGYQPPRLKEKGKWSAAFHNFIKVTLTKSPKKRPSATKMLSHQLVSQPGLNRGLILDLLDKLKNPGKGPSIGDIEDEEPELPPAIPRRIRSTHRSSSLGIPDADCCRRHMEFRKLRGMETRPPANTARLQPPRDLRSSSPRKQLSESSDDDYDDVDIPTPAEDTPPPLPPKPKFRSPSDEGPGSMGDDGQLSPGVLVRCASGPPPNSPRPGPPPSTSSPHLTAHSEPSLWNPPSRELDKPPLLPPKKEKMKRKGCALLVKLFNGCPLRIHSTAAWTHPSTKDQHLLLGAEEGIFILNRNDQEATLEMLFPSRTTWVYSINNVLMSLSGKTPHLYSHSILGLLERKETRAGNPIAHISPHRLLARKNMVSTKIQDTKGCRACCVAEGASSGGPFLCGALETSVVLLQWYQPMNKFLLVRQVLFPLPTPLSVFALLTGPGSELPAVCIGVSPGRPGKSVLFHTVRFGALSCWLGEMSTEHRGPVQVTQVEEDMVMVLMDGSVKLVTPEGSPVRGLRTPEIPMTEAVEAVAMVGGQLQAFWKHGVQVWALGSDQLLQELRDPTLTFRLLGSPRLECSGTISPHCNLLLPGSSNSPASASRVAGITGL
Procedure, shortened: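 Dmax is derived from four-parameter curves of % HPK1 remaining, as 100 minus the lowest value, normalized to DMSO-treated cells with parental Jurkat background subtracted. HiBiT-HPK1 knock-in Jurkat cells got compound for 24 hours (final 10 uM to 0.1 nM, 11 points) before lytic HiBiT luminescence. Cytotoxicity was checked on parallel CellTiter-Glo plates.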

| Dmax [%] | SMILES |
| --- | --- |
| 45 to 65 | Cc1cc(F)c(Nc2nc(-c3ccc4c(c3)N([C@H]3C[C@@H](N5CCCCC5)C3)C(=O)C43CCN(C(=O)C[C@H]4CC[C@H](Nc5cccc6c5C(=O)N(C5CCC(=O)NC5=O)C6=O)CC4)CC3)cc3ncn(C(C)C)c23)cc1C(=O)NC(C)C (stereo partly drawn) [Example 80, 5-((6-(1′-(2-((1R,4R)-4-((2-(2,6-dioxopiperidin-3-yl)-1,3-dioxoisoindolin-4-yl)amino)cyclohexyl)acetyl)-2-oxo-1-((1s,3s)-3-(piperidin-1-yl)cyclobutyl)spiro[indoline-3,4′-piperidin]-6-yl)-3-isopropyl-3H-imidazo[4,5-c]pyridin-4-yl)amino)-4-fluoro-N-isopropyl-2-methylbenzamide] |
| 45 to 65 | Cc1cc(F)c(Nc2nc(-c3ccc4c(c3)N([C@H]3C[C@@H](N5CCCCC5)C3)C(=O)C43CCN(C(=O)[C@@H]4CCN(C(=O)[C@H]5CC[C@H](Nc6ccc7c(c6)C(=O)N(C6CCC(=O)NC6=O)C7=O)CC5)C4)CC3)cc3ncn(C(C)C)c23)cc1C(=O)NC(C)C (stereo partly drawn) [Example 81, 5-((6-(1′-((3R)-1-((1R,4R)-4-((2-(2,6-dioxopiperidin-3-yl)-1,3-dioxoisoindolin-5-yl)amino)cyclohexane-1-carbonyl)pyrrolidine-3-carbonyl)-2-oxo-1-((1s,3s)-3-(piperidin-1-yl)cyclobutyl)spiro[indoline-3,4′-piperidin]-6-yl)-3-isopropyl-3H-imidazo[4,5-c]pyridin-4-yl)amino)-4-fluoro-N-isopropyl-2-methylbenzamide] |
| 45 to 65 | Cc1cc(F)c(Nc2nc(-c3ccc4c(c3)N([C@H]3C[C@@H](N5CCCCC5)C3)C(=O)C43CCN(C(=O)[C@@H]4CCN(C(=O)C[C@H]5CC[C@H](Nc6cccc7c6C(=O)N(C6CCC(=O)NC6=O)C7=O)CC5)C4)CC3)cc3ncn(C(C)C)c23)cc1C(=O)NC(C)C (stereo partly drawn) [Example 82, 5-((6-(1′-((3R)-1-(2-((1R,4R)-4-((2-(2,6-dioxopiperidin-3-yl)-1,3-dioxoisoindolin-4-yl)amino)cyclohexyl)acetyl)pyrrolidine-3-carbonyl)-2-oxo-1-((1s,3s)-3-(piperidin-1-yl)cyclobutyl)spiro[indoline-3,4′-piperidin]-6-yl)-3-isopropyl-3H-imidazo[4,5-c]pyridin-4-yl)amino)-4-fluoro-N-isopropyl-2-methylbenzamide] |
| < 45 | Cc1cc(F)c(Nc2nc(-c3ccc4c(c3)N([C@H]3C[C@@H](N5CCCCC5)C3)C(=O)C43CCN(C(=O)c4ccc(N5CCN(c6cccc7c6C(=O)N(C6CCC(=O)NC6=O)C7=O)CC5)nc4)CC3)cc3ncn(C(C)C)c23)cc1C(=O)NC(C)C (stereo partly shown) [Example 83, 5-((6-(1′-(6-(4-(2-(2,6-dioxopiperidin-3-yl)-1,3-dioxoisoindolin-4-yl)piperazin-1-yl)nicotinoyl)-2-oxo-1-((1s,3)-3-(piperidin-1-yl)cyclobutyl)spiro[indoline-3,4′-piperidin]-6-yl)-3-isopropyl-3H-imidazo[4,5-c]pyridin-4-yl)amino)-4-fluoro-N-isopropyl-2-methylbenzamide] |
| 45 to 65 | Cc1cc(F)c(Nc2nc(-c3ccc4c(c3)N([C@H]3C[C@@H](N5CCCCC5)C3)C(=O)C43CCN(C(=O)c4cnc(N5CCN(c6cccc7c6C(=O)N(C6CCC(=O)NC6=O)C7=O)CC5)cn4)CC3)cc3ncn(C(C)C)c23)cc1C(=O)NC(C)C (stereo partly shown) [Example 84, 5-((6-(1′-(5-(4-(2-(2,6-dioxopiperidin-3-yl)-1,3-dioxoisoindolin-4-yl)piperazin-1-yl)pyrazine-2-carbonyl)-2-oxo-1-((1s,3s)-3-(piperidin-1-yl)cyclobutyl)spiro[indoline-3,4′-piperidin]-6-yl)-3-isopropyl-3H-imidazo[4,5-c]pyridin-4-yl)amino)-4-fluoro-N-isopropyl-2-methylbenzamide] |
| < 45 | Cc1cc(F)c(Nc2nc(-c3ccc4c(c3)N([C@H]3C[C@@H](N5CCCCC5)C3)C(=O)C43CCN(C(=O)c4ccc(N5CCN(c6ccc7c(c6)C(=O)N(C6CCC(=O)NC6=O)C7=O)CC5)nc4)CC3)cc3ncn(C(C)C)c23)cc1C(=O)NC(C)C (stereo partly shown) [Example 85, 5-((6-(1′-(6-(4-(2-(2,6-dioxopiperidin-3-yl)-1,3-dioxoisoindolin-5-yl)piperazin-1-yl)nicotinoyl)-2-oxo-1-((1s,3s)-3-(piperidin-1-yl)cyclobutyl)spiro[indoline-3,4′-piperidin]-6-yl)-3-isopropyl-3H-imidazo[4,5-c]pyridin-4-yl)amino)-4-fluoro-N-isopropyl-2-methylbenzamide] |
| 45 to 65 | Cc1cc(F)c(Nc2nc(-c3ccc4c(c3)N([C@H]3C[C@@H](N5CCCCC5)C3)C(=O)C43CCN(C(=O)[C@@H]4CCN(C(=O)c5cnc(N6CCN(c7cccc8c7C(=O)N(C7CCC(=O)NC7=O)C8=O)CC6)cn5)C4)CC3)cc3ncn(C(C)C)c23)cc1C(=O)NC(C)C (stereo partly drawn) [Example 86, 5-((6-(1′-((3R)-1-(5-(4-(2-(2,6-dioxopiperidin-3-yl)-1,3-dioxoisoindolin-4-yl)piperazin-1-yl)pyrazine-2-carbonyl)pyrrolidine-3-carbonyl)-2-oxo-1-((1s,3s)-3-(piperidin-1-yl)cyclobutyl)spiro[indoline-3,4′-piperidin]-6-yl)-3-isopropyl-3H-imidazo[4,5-c]pyridin-4-yl)amino)-4-fluoro-N-isopropyl-2-methylbenzamide] |

Further lines, the compound ahead of its results:

| SMILES | Dmax [%] |
| --- | --- |
| Cc1cc(F)c(Nc2nc(-c3ccc4c(c3)N([C@H]3C[C@@H](N5CCCCC5)C3)C(=O)C43CCN(C(=O)C4(C)CCN(C(=O)C5CCN(c6ccc7c(c6)C(=O)N(C6CCC(=O)NC6=O)C7=O)CC5)CC4)CC3)cc3ncn(C(C)C)c23)cc1C(=O)NC(C)C (stereo partly shown) [Example 74, 5-[(6-{1′-[1-(1-{2-[2,6-dioxopiperidin-3-yl]-1,3-dioxoisoindol-5-yl}piperidine-4-carbonyl)-4-methylpiperidine-4-carbonyl]-2-oxo-1-[(1s,3s)-3-(piperidin-1-yl)cyclobutyl]spiro[indole-3,4′-piperidin]-6-yl}-3-isopropylimidazo[4,5-c]pyridin-4-yl)amino]-4-fluoro-N-isopropyl-2-methylbenzamide] | 45 to 65 |
| Cc1cc(F)c(Nc2nc(-c3ccc4c(c3)N([C@H]3C[C@@H](N5CCCCC5)C3)C(=O)C43CCN(C(=O)c4ccc(C(=O)N5CCC(c6cccc7c6C(=O)N([C@H]6CCC(=O)NC6=O)C7=O)CC5)cc4)CC3)cc3ncn(C(C)C)c23)cc1C(=O)NC(C)C [Example 75, 5-[(6-{1′-[4-(4-{2-[2,6-dioxopiperidin-3-yl]-1,3-dioxo-2,3-dihydro-1H-isoindol-4-yl}piperidine-1-carbonyl)benzoyl]-2-oxo-1-[(1s,3s)-3-(piperidin-1-yl)cyclobutyl]-1,2-dihydrospiro[indole-3,4′-piperidin]-6-yl}-3-(propan-2-yl)-3H-imidazo[4,5-c]pyridin-4-yl)amino]-4-fluoro-2-methyl-N-(propan-2-yl)benzamide] | < 45 |
| Cc1cc(F)c(Nc2nc(-c3ccc4c(c3)N([C@H]3C[C@@H](N5CCCCC5)C3)C(=O)C43CCN(C(=O)c4ccc(C(=O)N5CCC(c6ccc7c(c6)C(=O)N(C6CCC(=O)NC6=O)C7=O)CC5)cc4)CC3)cc3ncn(C(C)C)c23)cc1C(=O)NC(C)C (stereo partly shown) [Example 76, 5-[(6-{1′-[4-(4-{2-[2,6-dioxopiperidin-3-yl]-1,3-dioxo-2,3-dihydro-1H-isoindol-5-yl}piperidine-1-carbonyl)benzoyl]-2-oxo-1-[(1s,3s)-3-(piperidin-1-yl)cyclobutyl]-1,2-dihydrospiro[indole-3,4′-piperidin]-6-yl}-3-(propan-2-yl)-3H-imidazo[4,5-c]pyridin-4-yl)amino]-4-fluoro-2-methyl-N-(propan-2-yl)benzamide] | 45 to 65 |
| Cc1cc(F)c(Nc2nc(-c3ccc4c(c3)N([C@H]3C[C@@H](N5CCCCC5)C3)C(=O)C43CCN(C(=O)c4ccc(C(=O)N5CCC(Cc6cccc7c6C(=O)N(C6CCC(=O)NC6=O)C7=O)CC5)cc4)CC3)cc3ncn(C(C)C)c23)cc1C(=O)NC(C)C (stereo partly shown) [Example 77, 5-{[6-(1′-{4-[4-({2-[2,6-dioxopiperidin-3-yl]-1,3-dioxo-2,3-dihydro-1H-isoindol-4-yl}methyl)piperidine-1-carbonyl]benzoyl}-2-oxo-1-[(1s,3s)-3-(piperidin-1-yl)cyclobutyl]-1,2-dihydrospiro[indole-3,4′-piperidin]-6-yl)-3-(propan-2-yl)-3H-imidazo[4,5-c]pyridin-4-yl]amino}-4-fluoro-2-methyl-N-(propan-2-yl)benzamide] | 45 to 65 |
| Cc1cc(F)c(Nc2nc(-c3ccc4c(c3)N([C@H]3C[C@@H](N5CCCCC5)C3)C(=O)C43CCN(C(=O)c4ccc(C(=O)N5CCN(c6ccc7c(c6)C(=O)N(C6CCC(=O)NC6=O)C7=O)CC5)cc4)CC3)cc3ncn(C(C)C)c23)cc1C(=O)NC(C)C (stereo partly shown) [Example 78, 5-((6-(1′-(4-(4-(2-(2,6-dioxopiperidin-3-yl)-1,3-dioxoisoindolin-5-yl)piperazine-1-carbonyl)benzoyl)-2-oxo-1-((1s,3s)-3-(piperidin-1-yl)cyclobutyl)spiro[indoline-3,4′-piperidin]-6-yl)-3-isopropyl-3H-imidazo[4,5-c]pyridin-4-yl)amino)-4-fluoro-N-isopropyl-2-methylbenzamide] | 45 to 65 |
| Cc1cc(F)c(Nc2nc(-c3ccc4c(c3)N([C@H]3C[C@@H](N5CCCCC5)C3)C(=O)C43CCN(C(=O)[C@H]4CC[C@@H](C(=O)N5CCN(c6ccc7c(c6)C(=O)N(C6CCC(=O)NC6=O)C7=O)CC5)CC4)CC3)cc3ncn(C(C)C)c23)cc1C(=O)NC(C)C (stereo partly drawn) [Example 79, 5-((6-(1′-((1s,4S)-4-(4-(2-(2,6-dioxopiperidin-3-yl)-1,3-dioxoisoindolin-5-yl)piperazine-1-carbonyl)cyclohexane-1-carbonyl)-2-oxo-1-((1s,3s)-3-(piperidin-1-yl)cyclobutyl)spiro[indoline-3,4′-piperidin]-6-yl)-3-isopropyl-3H-imidazo[4,5-c]pyridin-4-yl)amino)-4-fluoro-N-isopropyl-2-methylbenzamide] | 45 to 65 |
